These results are taken from patent publication US12016834B2, “Small molecule inhibitors of SLC25A1” (GEORGETOWN UNIVERSITY, priority 2017, dated 2024).

Common to all, as to assay type: cell-based, human
The test system of experiment [1] is phosphofructokinase (PFK). The experiment can be described thus: Phosphofructokinase activity in cells. As to conditions: 3 hours. Here is the method: Cells, reagents, antibodies, primers. The H1299 cell lines and other cell lines employed in this study were obtained from ATCC or from the tissue culture core facility at LCCC. Cells were grown in Dulbecco's Modified Eagle's Medium (DMEM, 25 mM glucose, with glutamine and pyruvate from Invitrogen; Carlsbad, CA) and supplemented with 10% fetal calf serum (FCS). […] The SLC25A1 specific shRNA vectors were purchased from Sigma. The vector expressing human SLC25A1 untagged or Flag-Myc epitope tagged were from Origene; Rockville, MD (#SC120727 and RC200657, respectively). The anti-SLC25A1 antibody used in immuno-blot was from Santa Cruz Biotech, #sc-86392 employed at 1:1000 dilution. Citrate, lactate, and PFK measurements were performed by using commercially available kits (Biovision (Milpitas, CA)).

Experiment [2] relates to H1299 spheres. Put plainly: Cell cycle analysis of spheres. As to conditions: after three days of treatment. Here is the method:
(§1) Flow cytometry. Tumor cells were trypsinized and washed in 1×PBS. The cells were then stained with the antibodies of choice: CD166-PE (Biolegend), CD133-647 (Biolegend), or CD44 (Biolegend), in 1% BAS-PBS. The cell cycles of monolayers or spheres of the cells were analyzed by fixing the cells in cold 75% ethanol. The annexin V (Biolegend) and propidium iodide (Biolegend) experiments were carried out.

The test system of experiment [3] is MP1 cells. The experiment can be described thus: Apoptosis by annexin V and PI flow cytometry. Here is the method: as §1
On the technique in general: Flow cytometry measures light scatter and fluorescence of single cells or particles in a stream.

In experiment [4] the test system is MP2 cells. The experiment can be described thus: Seahorse OCR and ATP in patient-derived cells. Here is the method:
(§2) Primary lung cancer cultures and GMSC. Surgical samples were minced and digested with dispase (50 U/ml) in DMEM media containing 5% serum for 1 hour. Pleural effusions were centrifuged, washed once in PBS, and then plated. All primary cultures were initially grown on 6-well plates pre-coated with 2% Geltrex (Life Technologies; Carlsbad, CA) and 1% Maxgel (Sigma Aldrich). Maxgel is a humanized matrix, native and non-denatured. The inclusion of Maxgel in the system enhanced the initial attachment of primary tumor cells, partially because Maxgel provides a more natural ECM conformational substrate. The day after plating, the media containing unattached cells was typically transferred to a fresh plate, in most of cases generating new attached cultures. The media (Stem Cell Media) is the DMEM/F12 (Thermo-Fisher #11320-033 basic media) supplemented with the following components: Insulin-Transferrin-Sodium selenite (ITS; 1:1000; Sigma #11884); glutamine (Thermo-Fisher) to 4 mM final concentration; sodium pyruvate (Thermo-Fisher) to 2 mM final concentration; rock inhibitor (Y-27632) 10 micrograms/mL; 2-5% Knock Out Serum Replacement (KNOSR, Thermo-Fisher #10828-028); 0.5% ALBUMAX-(Lipid enriched BSA; Thermo-Fisher #11020-021); N2 Supplement (Thermo-Fisher) 1:250; EGF (5 ng/ml; Peprotech); hFGF (20 ng/ml; Bechman); and IGF-1 (Peprotech; 10-20 ng/ml).
(§3) Seahorse extracellular flux analyzer experiments. Cells derived from spheres or monolayer cultures were dissociated and plated overnight at 12,000 cells/well in DMEM with 10% FBS, 5 mM glucose, 1 mM pyruvate, 2 mM glutamine.
(§4) For the mitochondrial stress test, the media was replaced with DMEM without FBS or bicarbonate, containing 5 mM glucose, 1 mM pyruvate, 2 mM glutamine and placed in a CO2 free incubator at 37° C. for 1 hour, and then transferred to the Xf96 extracellular flux analyzer (Agilent; Santa Clara, CA). The program consisted of 3 measurements of OCR/ECAR before the injection of each drug: oligomycin (0.5 μM final concentration), FCCP (2 μM) and rotenone/antimycin (0.5 μM of each). For the glycolysis stress test, cells were plated overnight as above, and the media was washed twice the following day with DMEM without FBS, bicarbonate, glucose, glutamine or pyruvate, and incubated in this media in a CO2 free incubator with/without drug treatments at 37° C. for 4 hours. There were 3 measurements of OCR/ECAR before each injection: glucose (10 mM final concentration), oligomycin (0.5 […] (50 mM). For the analysis of glutamine oxidation, the protocol was the same as the glucose stress test, but with glutamine being the only compound injected (final concentration 4 mM) and OCR/ECAR measured for 60 minutes. When spheres were analyzed, they were dissociated with StemPro® Accutase® (Thermo Scientific; Waltham, MA) and plated under the same conditions as above as for the monolayers the day before the assay (H1299 spheres), or in stem cell media (See Stem Cell Media) with the wells coated in 15 μL of 2% geltrex diluted in DMEM:F12 (Thermo Scientific). The results were normalized to cell number.

Experiment [5] concerns MP1 cells. The experiment can be described thus: Seahorse OCR and ATP in patient-derived cells. As to conditions: GMSC versus monolayer; treatment 3 hours. Here is the method:
as §2, §3, §4

For experiment [6], the system named is H1299 cells. The experiment can be described thus: Proliferation / viability in monolayer (2D) cultures. Here is the method: Cellular proliferation and cytotoxicity assays. The proliferative capacity of cells was assessed by plating cells in triplicate at a concentration of 2,000 to 10,000 cells/well in 96 well plates in triplicate, with or without drug treatment for 48 hours. The cells were then washed with 1×PBS and fixed with cold 100% methanol at−20° C. for 20 minutes. Methanol was washed off and the cells were stained with 0.5% crystal violet dissolved in 25% methanol and water at 4° C. for 20 minutes. The staining was washed off using deionized (DI) water and the plate was dried overnight. On the second day, 100 mM sodium citrate in 50% ethanol and 50% water was added to the wells and absorbance at 550 nm was measured and corrected with readings at 405 nm. In other experiments, cell viability was assessed by trypan blue exclusion and visual count of the live cells was performed.

SMILES strings stand for the structures.

Regarding `O=C(O)c1ccccc1NS(=O)(=O)c1ccc(Cl)c([N+](=O)[O-])c1` [CTPI-2], the PFK activity result was “enhanced” in experiment [1] (monolayer differentiated cultures) and “unchanged” in experiment [1] (spheres). In experiment [2], the “cell cycle effect in spheres” value is “modestly cytostatic”. Further, the apoptosis entry in experiment [3] (co-treated with cisplatin and CTPI-2) is given as “strong pro-apoptotic effect”; in experiment [3] (drug alone), “did not induce apoptosis”. In addition, the “increase of oxygen consumption rates, basal, SRC and mitochondrial ATP output in GMSC cells” value in experiment [4] (GMSC versus monolayer, treatment 3 hours) is recorded as “reverted by CTPI-2 more prominently in CSCs than in monolayer cultures”; in experiment [5], “reverted by CTPI-2 more prominently in CSCs than in monolayer cultures”. Also, the “basal respiration, SRC and ATP production in cisplatin treated cells” value in experiment [4] (monolayer cells exposed to cisplatin (FIG. 15A)) is “blocked basal respiration, SRC and ATP production”. The “proliferation of cells expressing the SLC25A1-shRNA” value in experiment [6] (SLC25A1-shRNA lentivirus, live cells counted after one week) is on record as “failed to inhibit proliferation”. For the same molecule, the “anti-proliferative activity, ranges of concentrations” value in experiment [6] (monolayer or methylcellulose single cells (FIG. 3J)) was “anti-proliferative activity at comparable ranges of concentrations”.
